Measurements from US20060204502A1 (priority 2004, published 2006).
Where two headings read alike, the source gives them in different places. Values belong to the compound of their own block, whether it stands above or below them.

How the values were obtained:
[1] = test system: p44/p42 MAPK; experiment: p44/p42 MAPK phosphorylation immunoblot, A375 cells in hypoxia; assay type: cell-based, human; conditions: 4 hours hypoxia, nanomolar concentrations, maximum at 100 nM
Procedure: (§1) Cells were harvested and washed with ice-cold PBS containing 1 mM sodium orthovanadate, AEBSF 104 mM, aprotinin 0.08 mM, leupeptin 2 mM, bestatin 4 mM, pepstatin A 1.5 mM, E-64 1.4 mM. Cells were then lysed in Triton lysis buffer. The protein concentration was determined using BCA protein assay kit (Pierce). Equivalent amounts of protein (35 ug) were subjected to electrophoresis on 7.5% sodium dodecyl sulfate-acrylamide gel. The gel was then electroblotted onto a nitrocellulose membrane. Membranes were blocked with 5% nonfat dry milk in PBS containing 0.1% Tween-20 and incubated with antibodies against HIF-1α (1:250 dilution) and HIF-1β (1:1000 dilution) in 5% nonfat dry milk in PBS/0.1% Tween-20 overnight at 4° C. Aliquots of total protein sample (50 ug) were analyzed using antibodies specific for phosphorylated (Thr183/Tyr185) or total p44/p42 MAPK (1:5000 dilution), phosphorylated (Thr180/Tyr182) or total p38 MAPK (1:1000 dilution) and for A3 receptor (1 µg/ml dilution). Filters were washed and incubated for 1 hour at room temperature with peroxidase-conjugated secondary antibodies against mouse and rabbit IgG (1:2000 dilution). […] The membranes were then stripped and reprobed with tubulin (1:250) to ensure equal protein loading. […]

[2] = test system: HIF-1α; experiment: HIF-1α protein immunoblot in hypoxic cells; assay type: cell-based, human; conditions: for HIF-1α protein expression: 100 nM, 4 hours hypoxia
Procedure: Cell culture and hypoxia treatment: Cells were maintained in DMEM (A375), EMEM (NCTC 2544) or RPMI 1640 (U87MG, U2OS) medium containing 10% fetal calf serum, penicillin (100 U/ml), streptomycin (100 ug/ml), and L-glutamine (2 mM) at 37° C. in 5% CO2/95% air. Cells were passaged two or three times weekly at a ratio between 1:5 and 1:10. Hypoxic exposure was in BBL™ GasPak pouch™ System (Becton Dickinson) that reduce oxygen concentration of less than 2% within 2 hours of incubation at 35° C.
Cells were harvested and washed with ice-cold PBS containing 1 mM sodium orthovanadate, AEBSF 104 mM, aprotinin 0.08 mM, leupeptin 2 mM, bestatin 4 mM, pepstatin A 1.5 mM, E-64 1.4 mM. Cells were then lysed in Triton lysis buffer. The protein concentration was determined using BCA protein assay kit (Pierce). […] The gel was then electroblotted onto a nitrocellulose membrane. Membranes were blocked with 5% nonfat dry milk in PBS containing 0.1% Tween-20 and incubated with antibodies against HIF-1α (1:250 dilution) and HIF-1β (1:1000 dilution) in 5% nonfat dry milk in PBS/0.1% Tween-20 overnight at 4° C. Aliquots of total protein sample (50 ug) were analyzed using antibodies specific for phosphorylated (Thr183/Tyr185) or total p44/p42 MAPK (1:5000 dilution), phosphorylated (Thr180/Tyr182) or total p38 MAPK (1:1000 dilution) and for A3 receptor (1 µg/ml dilution). Filters were washed and incubated for 1 hour at room temperature with peroxidase-conjugated secondary antibodies against mouse and rabbit IgG (1:2000 dilution). […] The membranes were then stripped and reprobed with tubulin (1:250) to ensure equal protein loading.
U0126 was used at 10 and 30 uM as inhibitor of MEK-1 and MEK-2 to prevent p44 and p42 MAPK activation. SB202190 was used at 1 and 10 uM as inhibitor of p38 MAPK.
Densitometry analysis: The intensity of each band in immunoblot assay was quantified using molecular analyst/PC densitometry software (Bio-Rad). […] The data were presented as the mean±S.E., and analyzed by the Student's test.

[3] = test system: p38 MAPK; experiment: p38 MAPK phosphorylation immunoblot, A375 cells in hypoxia; assay type: cell-based, human; conditions: 4 hours hypoxia, 10-1000 nM
Procedure: as §1

[4] = test system: A375 cells; experiment: Colony formation assay of A375 cells; assay type: cell-based, human
Procedure: FIG. 2 illustrates colony formation assay of A375 cells. Cells were treated with different drugs and colonies were counted after 7 days. The values represent the mean±SEM of four independent experiments. […] Analysis was by ANOVA followed by Dunnett's test.
Control plates received the same volume of DMSO alone. After 7 days of growth at 37° C. in humidified atmosphere containing 5% CO2, the cells were fixed with absolute methanol for 5′ and stained with 1/10 Giemsa/phosphate-buffered saline (PBS) staining solution for 10 minutes. Staining solution was removed and colonies of greater than 30 cells were scored as survivors. For each treatment, six individual wells were scored.

[5] = test system: HIF-1α mRNA; experiment: Real-Time RT-PCR of HIF-1α mRNA, A375 cells in hypoxia; assay type: cell-based, human; conditions: 4 hours hypoxia
[6] = test system: A375 cells; experiment: Flow cytometry cell cycle (G2/M) and apoptosis (sub-G1) analysis, A375; assay type: cell-based, human; conditions: A375; for EC50: Homo sapiens, A-375
Procedure: Flow Cytometry Analysis: A375 and NCTC2544 adherent cells were trypsinized, mixed with floating cells, washed with PBS and permeabilised in 70% (vol/vol) ethanol/PBS solution at 4° C. for at least 24 hours. Jurkat, HeL023 and PBMC cells were centrifuged for 10 minutes at 1000×g. The cell pellet was then resuspended and permeabllised in 70% (vol/vol) ethanol/PBS solution at 4° C. for at least 24 hours. The cells were washed with PBS and the DNA was stained with a PBS solution, containing 20 μg/ml of propidium iodide and 100 μg/ml of RNAse, at room temperature for 30 minutes. Cells were analysed by FACScan (Becton-Dickinson) and the content of DNA was evaluated by the Cell-LISYS program (Becton-Dickinson). Cell distribution among cell cycle phases and apoptotic cells was evaluated as previously described (Secchiero et al., 2001). Briefly, the cell cycle distribution is shown as the percentage of cells containing 2n (G1 phase), 4n (G2 and M phases), 4n>x>2n. DNA amount (S phase) judged by propidium iodide staining. The apoptotic population is the percentage of cells with DNA content lower than 2n.
After 24 hours, cells were collected for flow cytometry analysis. PD 98059 was used at 20 uM as an inhibitor of MEK to prevent MEK-1 activation. […]
EC50 values were obtained by analysing G2/M accumulation dose response curve. ECMAX values were obtained by analysing sub-G1 accumulation dose response curve. Paclitaxel values have units of ng/ml.

[7] = biological target: T1, human A3 adenosine receptor (Homo sapiens, UniProt P0DMS8); experiment: Binding affinity to A3 adenosine receptor in A375 cells
T1 construct: endogenous in cells; host or cells: A375 human melanoma cells (ATCC)
T1 sequence (P0DMS8 1-318): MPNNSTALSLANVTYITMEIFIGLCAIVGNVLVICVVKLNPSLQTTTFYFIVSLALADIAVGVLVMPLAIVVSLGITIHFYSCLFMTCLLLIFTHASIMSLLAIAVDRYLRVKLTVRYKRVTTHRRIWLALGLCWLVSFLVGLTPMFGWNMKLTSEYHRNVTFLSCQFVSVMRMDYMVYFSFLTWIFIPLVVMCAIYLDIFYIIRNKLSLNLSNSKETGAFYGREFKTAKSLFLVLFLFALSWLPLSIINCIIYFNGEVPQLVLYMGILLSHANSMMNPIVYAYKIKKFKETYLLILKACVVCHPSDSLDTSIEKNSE

[8] = biological target: P-gp (Homo sapiens, UniProt P08183); assay type: cell-based; conditions: HeL023 cells; 10 μM
Sequence of P-gp (P08183 whole entry): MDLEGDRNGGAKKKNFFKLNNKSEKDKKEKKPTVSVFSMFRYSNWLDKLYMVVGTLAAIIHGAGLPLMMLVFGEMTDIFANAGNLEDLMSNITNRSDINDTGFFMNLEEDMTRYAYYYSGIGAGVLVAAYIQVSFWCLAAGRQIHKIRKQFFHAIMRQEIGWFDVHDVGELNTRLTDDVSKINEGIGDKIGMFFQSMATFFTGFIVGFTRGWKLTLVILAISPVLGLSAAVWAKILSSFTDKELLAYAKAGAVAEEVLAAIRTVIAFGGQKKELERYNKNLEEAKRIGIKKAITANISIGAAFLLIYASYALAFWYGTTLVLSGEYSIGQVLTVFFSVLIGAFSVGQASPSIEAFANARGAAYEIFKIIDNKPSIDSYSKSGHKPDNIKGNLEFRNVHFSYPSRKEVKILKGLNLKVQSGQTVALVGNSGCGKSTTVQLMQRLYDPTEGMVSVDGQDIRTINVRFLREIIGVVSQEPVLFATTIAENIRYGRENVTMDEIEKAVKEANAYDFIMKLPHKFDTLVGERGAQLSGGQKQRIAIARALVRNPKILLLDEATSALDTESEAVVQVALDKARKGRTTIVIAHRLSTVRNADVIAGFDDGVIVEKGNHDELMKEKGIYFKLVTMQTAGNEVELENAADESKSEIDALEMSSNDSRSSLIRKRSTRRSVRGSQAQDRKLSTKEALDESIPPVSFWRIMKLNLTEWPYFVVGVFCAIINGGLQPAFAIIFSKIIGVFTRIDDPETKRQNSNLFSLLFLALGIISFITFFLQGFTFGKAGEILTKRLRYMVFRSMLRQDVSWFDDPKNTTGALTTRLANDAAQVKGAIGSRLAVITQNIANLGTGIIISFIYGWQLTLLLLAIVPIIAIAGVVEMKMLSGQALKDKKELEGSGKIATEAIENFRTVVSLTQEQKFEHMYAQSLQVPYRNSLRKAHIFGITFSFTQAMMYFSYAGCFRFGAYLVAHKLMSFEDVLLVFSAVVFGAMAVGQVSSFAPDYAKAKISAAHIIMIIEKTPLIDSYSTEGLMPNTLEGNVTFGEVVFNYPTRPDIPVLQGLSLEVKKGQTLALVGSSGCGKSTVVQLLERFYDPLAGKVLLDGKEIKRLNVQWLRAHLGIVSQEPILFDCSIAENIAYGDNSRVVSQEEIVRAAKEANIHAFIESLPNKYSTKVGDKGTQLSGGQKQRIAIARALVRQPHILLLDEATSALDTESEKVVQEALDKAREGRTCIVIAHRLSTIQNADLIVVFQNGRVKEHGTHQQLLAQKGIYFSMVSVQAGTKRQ
Procedure: Rhodamine 123 Efflux Assay: 5×10^5 cells from each subline were loaded with 50 ng/ml of rhodamine 123 for 30 minutes at 37 C in medium. The cells were washed and resuspended in dye-staining agent free medium for 3 hours at 37 C. to allow rhodamine 123 efflux. The cells were then washed twice and the fluorescence of intracellular rhodamine 123 were analysed with Flow cytometer (residual fluorescence FRES). The fluorescence was compared with loaded cells maintained at 4 C. to prevent drug export (maximal fluorescence FMAX). […] Cells from each subline that were not being exposed to rhodamine 123 were used as negative controls.
Rhodamine 123 (Rh123) retention, a P-gp functional assay, was studied in all cell lines. This assay was performed by incubating cells with Rh123 and determining Rh123 accumulation by measuring its fluorescence. The maximum load of Rh123 (FMAX) was quantified at the end of treatment harvesting the cells and storing them at 4° C. to prevent any active Rh123 efflux. The P-gp drug efflux was allowed incubating Rh123-loaded cells in fresh new medium Rh123-free for 3 hours at 37° C. After this incubation, residual fluorescence (FRES) was measured and compared to FMAX.

[9] = test system: Human Melanoma A375; experiment: MTT growth inhibitory assay, A375; conditions: Homo sapiens, A-375, read-out: IC50 (μg/ml) of anti-neoplastic agent used jointly with A3 antagonist, A375 cells
[10] = test system: PBMC blasts; experiment: Flow cytometry cell cycle analysis, PBMC blasts; assay type: cell-based; conditions: Homo sapiens, + MRE3008F20 10 μM, read-out: EC50 (G2/M accumulation)

EC50 ([2]; A375, hypoxia 4 hours, read-out: EC50, HIF-1α protein accumulation): 10.6 ± 1.2 nM
SMILES: CNC(=O)[C@H]1O[C@@H](n2cnc3c(NCc4cccc(I)c4)nc(Cl)nc32)[C@H](O)[C@@H]1O [Cl-IB-MECA]
phosphorylation of p44 and p42 [1]: induced
HIF-1α protein expression ([2]; U2OS osteosarcoma): significant increase
HIF-1α protein expression ([2]; U87MG glioblastoma): significant increase
HIF-1α protein expression ([2]; human keratinocytes NCTC 2544): significant increase
phosphorylation of p38 MAPK [3]: increased the phosphorylation of p38 MAPK in a dose-dependent manner
colony formation, % of DMSO control ([4]; 10 μM alone, colonies counted after 7 days): 130%
colony formation, % of DMSO control ([4]; 10 μM combined with paclitaxel (0.75 μg/ml), 7 days): 85%
fold increase of HIF-1α mRNA accumulation vs untreated cells ([5]; 10 nM): 1.13±0.10 fold
fold increase of HIF-1α mRNA accumulation vs untreated cells ([5]; 100 nM): 1.25±0.15 fold
fold increase of HIF-1α mRNA accumulation vs untreated cells ([5]; 1 μM): 1.19±0.13 fold

EC50 ([6]; antagonist dose inducing 50% of the enhancing activity to vindesine (1 nM), G2/M accumulation, read-out: SEC50): 430 ± 40 nM
Ki [7]: 2.3 ± 0.2 nM
% of Rh123 Negative Cells (cells expressing P-gp activity) [8]: 1.0 ± 0.2%
SMILES: CCCCn1cc2c(nc(NC(=O)Nc3ccccc3)n3nc(-c4ccco4)nc23)n1 [MRE 3062F20, 5-N-(4-phenyl-carbumoyl)amino-8-butyl-2(2furyl)-pyrazolo-[4,3e]-1,2,4-triazolo[1,5-c]pyrimidine]

EC50 ([6]; 24 h, DMSO (no antagonist), read-out: EC50 (G2/M accumulation)): 16.6 ± 2 ng/mL
IC50 ([9]; + IL-11 (5 μg/ml)): 0.00046 µg/mL
IC50 ([9]; + MRE3008F20 (10 μg/ml)): 0.00059 µg/mL
SMILES: CC(=O)O[C@H]1C(=O)[C@@]2(C)[C@H]([C@H](OC(=O)c3ccccc3)[C@]3(O)C[C@H](OC(=O)[C@H](O)[C@@H](NC(=O)c4ccccc4)c4ccccc4)C(C)=C1C3(C)C)[C@]1(OC(C)=O)CO[C@@H]1C[C@@H]2O [paclitaxel]
ECMAX (concentration exerting maximal apoptosis, sub-G1) ([6]; DMSO (no antagonist)): 6.00 ± 0.63 ng/mL
colony formation, % of DMSO control ([4]; paclitaxel (0.75 μg/ml) alone, 7 days): 64%
EC50 [10]: 5.3 ± 0.6 ng/mL
